The values below come from ChEMBL document CHEMBL1201862, “PubChem BioAssay data set” (2004).

Among the test systems are K562; A549; SF-268; ACHN; SK-OV-3; 786-0; NCI/ADR-RES; MDA-MB-231; HCT-15; HL-60; UACC-62; HCT-116; OVCAR-8; RXF 393; HCC 2998; IGROV-1; SK-MEL-5; OVCAR-4; M14; CAKI-1.
Assay in all cases: NCI tumour cell line growth inhibition, 48 h

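Assay format: 96-well plates, 48-hour exposure. GI50 is the concentration that inhibits growth by half.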 Activity calls are given as the source filed them. Rule as the data show it: active = GI50 up to about 1.1 µM and inactive = higher. Where only a bound is given, the exact number is not on record here.

With `N#CC(c1ccccc1)(c1ccccc1)[C@@H](c1ccccc1)[C@H](Cc1ccccc1)NS(=O)(=O)c1ccccc1`, the GI50 in the assay with K562, in the assay on A549, in the assay on SF-268, with ACHN, with SK-OV-3 and with 786-0 was > 100 µM (inactive) each time. Besides, the GI50 was > 100 µM (inactive) in the assay on NCI/ADR-RES; > 100 µM (inactive) with MDA-MB-231; above 100 µM in the assay with HCT-15; 4.17 µM (inactive) with HL-60; > 100 µM (inactive) in the assay on UACC-62; > 100 µM (inactive) in the assay with HCT-116. Further, the GI50 with OVCAR-8 was > 100 µM (inactive); in the assay on RXF 393, 84.7 µM (inactive); in the assay with HCC 2998 it was > 100 µM (inactive); in the assay with IGROV-1, > 100 µM (inactive); in the assay with SK-MEL-5, 96.2 µM (inactive); in the assay with OVCAR-4, > 100 µM (inactive). Further, the GI50 in the assay on M14 and in the assay on CAKI-1 was > 100 µM (inactive) throughout.
Regarding `Cc1ccc(/C=C2\N=C(N3CCOCC3)NC2=O)cc1`, the GI50 with A549, with SF-268, with ACHN, with SK-OV-3, in the assay with 786-0 and in the assay with NCI/ADR-RES was > 100 µM (inactive) each time. Besides, the GI50 in the assay on MDA-MB-231 was > 100 µM (inactive); in the assay with HCT-15, above 100 µM; in the assay with HL-60, > 100 µM (inactive); in the assay on UACC-62 it was > 100 µM (inactive); in the assay with HCT-116, > 100 µM (inactive); in the assay on OVCAR-8 it was > 100 µM (inactive). For the same compound, the GI50 in the assay on RXF 393, with HCC 2998, in the assay on IGROV-1, with OVCAR-4, in the assay with M14 and in the assay on CAKI-1 was > 100 µM (inactive) throughout.
For `Cc1ccsc1/C=N/Nc1cc(C)c2ccccc2n1`, the GI50 was 9.06 µM (inactive) with K562; 9.55 µM (inactive) in the assay on A549; 17.6 µM (inactive) in the assay on SF-268; 12.9 µM (inactive) in the assay with ACHN; 17.3 µM (inactive) with SK-OV-3; 16.3 µM (inactive) in the assay with 786-0. Also, the GI50 with NCI/ADR-RES is 13.9 µM (inactive); in the assay with MDA-MB-231 it was 0.637 µM (active); in the assay with HCT-15, 11.4 µM; with HL-60 it was 12.2 µM (inactive); with UACC-62, 12.5 µM (inactive); in the assay with HCT-116, 12.1 µM (inactive). For the same compound, the GI50 is 14.7 µM (inactive) with OVCAR-8; 20.7 µM (inactive) with RXF 393; 14 µM (inactive) in the assay on HCC 2998; 1.36 µM (inactive) in the assay with IGROV-1; 2.17 µM (inactive) with SK-MEL-5; 14.6 µM (inactive) in the assay on OVCAR-4. Moreover, the GI50 in the assay with M14 was 8.63 µM (inactive); in the assay on CAKI-1, 16.6 µM (inactive).
For `CC(C)(C)OC(=O)NCC(=O)NC1CC=CCC1NC(=O)CNC(=O)OC(C)(C)C` (stereo not given), the GI50 with K562, with A549, in the assay with SF-268, in the assay with ACHN, with SK-OV-3 and in the assay on 786-0 was > 100 µM (inactive) throughout. The GI50 with NCI/ADR-RES was > 100 µM (inactive); with MDA-MB-231 it was > 100 µM (inactive); in the assay on HCT-15, above 100 µM; in the assay on HL-60, > 100 µM (inactive); with UACC-62, > 100 µM (inactive); in the assay on HCT-116, > 100 µM (inactive). Also, the GI50 with OVCAR-8, in the assay on RXF 393, with HCC 2998, in the assay with IGROV-1, with SK-MEL-5 and in the assay on OVCAR-4 was > 100 µM (inactive) in each case. Moreover, the GI50 in the assay on CAKI-1 is > 100 µM (inactive).
For the compound `Nc1nnc2n1C(=O)C(C1(C3=Nc4nnc(N)n4C3=O)Cc3ccccc3C1=O)=N2`, the GI50 was 94 µM (inactive) in the assay with K562; 43.5 µM (inactive) in the assay with A549; > 100 µM (inactive) in the assay with SF-268; > 100 µM (inactive) with ACHN; > 100 µM (inactive) in the assay with SK-OV-3; > 100 µM (inactive) in the assay on 786-0. The GI50 is > 100 µM (inactive) in the assay with NCI/ADR-RES; 31.8 µM (inactive) with MDA-MB-231; above 100 µM with HCT-15; > 100 µM (inactive) with HL-60; > 100 µM (inactive) with UACC-62; > 100 µM (inactive) in the assay on HCT-116. Besides, the GI50 with OVCAR-8, with RXF 393, with HCC 2998, in the assay on SK-MEL-5, in the assay on M14 and in the assay on CAKI-1 was > 100 µM (inactive) each time.
`S=C(Nc1ccccc1)N(Cc1ccccc1)c1ccccc1`: the GI50 was 29.7 µM (inactive) in the assay with K562; 29.8 µM (inactive) in the assay on A549; 34.8 µM (inactive) with SF-268; 35 µM (inactive) with ACHN; > 100 µM (inactive) with SK-OV-3; 74.3 µM (inactive) in the assay on 786-0. Further, the GI50 was > 100 µM (inactive) in the assay on NCI/ADR-RES; 45.6 µM (inactive) with MDA-MB-231; 40.4 µM in the assay on HCT-15; 27.8 µM (inactive) with HL-60; 21.6 µM (inactive) in the assay with UACC-62; 40.1 µM (inactive) in the assay with HCT-116. For the same compound, the GI50 is 22.6 µM (inactive) in the assay on RXF 393; > 100 µM (inactive) in the assay on HCC 2998; 44.4 µM (inactive) in the assay on IGROV-1; 13.8 µM (inactive) in the assay on SK-MEL-5; 23.7 µM (inactive) in the assay with OVCAR-4; 40.1 µM (inactive) with M14. For the same compound, the GI50 with CAKI-1 is 24.2 µM (inactive).
`O=[N+]([O-])c1cc2c([N+](=O)[O-])cccc2o1`: the GI50 in the assay on A549 was 30.1 µM (inactive); in the assay on SF-268, 15.7 µM (inactive); with ACHN it was 3.34 µM (inactive); in the assay on SK-OV-3, 16.8 µM (inactive); with 786-0 it was 2.17 µM (inactive); with NCI/ADR-RES it was 14.3 µM (inactive). The GI50 in the assay on MDA-MB-231 is 12.3 µM (inactive); with HCT-15, 4.59 µM; in the assay with UACC-62, 13 µM (inactive); in the assay on HCT-116 it was 2.72 µM (inactive); in the assay on OVCAR-8 it was 17 µM (inactive); with RXF 393, 5.51 µM (inactive). In addition, the GI50 in the assay on HCC 2998 is 17.6 µM (inactive); in the assay with SK-MEL-5, 16.7 µM (inactive); in the assay with OVCAR-4 it was 1.58 µM (inactive); in the assay on M14, 10.2 µM (inactive); in the assay on CAKI-1 it was 2.22 µM (inactive).
`C[C@@H]1[C@H](O)CC2=C(CC[C@@H](O)C2(C)C)[C@@]1(CO)CCc1ccoc1`: the GI50 in the assay on K562, with A549, with ACHN, in the assay on SK-OV-3, in the assay on 786-0 and with NCI/ADR-RES was > 50 µM (inactive) in each case. The GI50 is > 50 µM (inactive) with MDA-MB-231; above 50 µM in the assay with HCT-15; 15.8 µM (inactive) in the assay with HL-60; > 50 µM (inactive) with UACC-62; > 50 µM (inactive) with HCT-116; > 50 µM (inactive) in the assay with OVCAR-8. The GI50 in the assay with RXF 393, with HCC 2998, in the assay with IGROV-1, with SK-MEL-5, with OVCAR-4 and in the assay on M14 was > 50 µM (inactive) throughout. Moreover, in the assay with CAKI-1, the GI50 was > 50 µM (inactive).
Regarding `COc1ccc(Cn2nc(OCc3ccccn3)c3cc([N+](=O)[O-])ccc32)cc1`, the GI50 with K562 is > 100 µM (inactive); in the assay on A549, > 100 µM (inactive); in the assay with SF-268 it was > 100 µM (inactive); with ACHN, > 100 µM (inactive); in the assay with SK-OV-3, 63.7 µM (inactive); with 786-0, > 100 µM (inactive). Besides, the GI50 was > 100 µM (inactive) with NCI/ADR-RES; > 100 µM (inactive) with MDA-MB-231; above 100 µM in the assay on HCT-15; > 100 µM (inactive) in the assay with HL-60; 35.7 µM (inactive) in the assay on UACC-62; 63.1 µM (inactive) with OVCAR-8. The GI50 in the assay on RXF 393, with HCC 2998, in the assay on IGROV-1, with SK-MEL-5, in the assay with M14 and in the assay on CAKI-1 was > 100 µM (inactive) throughout.
Regarding `O=C(NC(=S)NC(=O)c1cc(O)c(O)c(O)c1)c1cc(O)c(O)c(O)c1`, the GI50 with K562 is 8.34 µM (inactive); in the assay with A549, 37.1 µM (inactive); in the assay with SF-268 it was 31.1 µM (inactive); with ACHN, 23 µM (inactive); with SK-OV-3, 23.2 µM (inactive); in the assay with 786-0, 20 µM (inactive). In addition, the GI50 in the assay on NCI/ADR-RES is 23.4 µM (inactive); in the assay with MDA-MB-231, 28.8 µM (inactive); in the assay on HCT-15 it was 23.9 µM; in the assay with UACC-62, 23.7 µM (inactive); in the assay on HCT-116, 20.4 µM (inactive); in the assay with OVCAR-8 it was 20.7 µM (inactive). Besides, the GI50 is 18 µM (inactive) in the assay with RXF 393; 31 µM (inactive) with HCC 2998; 24.5 µM (inactive) in the assay with SK-MEL-5; 20.4 µM (inactive) with OVCAR-4; 32.1 µM (inactive) in the assay on M14; 21.1 µM (inactive) in the assay on CAKI-1.
Take `O=C(/C=C/c1cccc(Oc2ccccc2)c1)NCc1ccc(C(=O)NCCc2ccccc2)cc1`: the GI50 in the assay with K562 was > 100 µM (inactive); in the assay with A549 it was > 100 µM (inactive); with SF-268, 33.5 µM (inactive); with ACHN, > 100 µM (inactive); in the assay on SK-OV-3 it was > 100 µM (inactive); in the assay with 786-0, 24.1 µM (inactive). Further, the GI50 is > 100 µM (inactive) in the assay with NCI/ADR-RES; 82.4 µM (inactive) in the assay on MDA-MB-231; above 100 µM in the assay on HCT-15; > 100 µM (inactive) in the assay with UACC-62; > 100 µM (inactive) with HCT-116; 24.8 µM (inactive) in the assay with OVCAR-8. Also, the GI50 with RXF 393 was 20 µM (inactive); in the assay on HCC 2998, > 100 µM (inactive); in the assay with IGROV-1 it was > 100 µM (inactive); with SK-MEL-5 it was > 100 µM (inactive); in the assay with OVCAR-4, 58.5 µM (inactive); in the assay on M14, > 100 µM (inactive). The GI50 with CAKI-1 is > 100 µM (inactive).
